Source: US6403778B1, “Toxicological response markers” (Incyte Genomics, Inc., priority 1998, dated 2002)

Experiments:
Conditions in all cases: male, Sprague-Dawley, rat, in vivo
P450 LA-omega = test system: P450 LA-omega
Description: (§1) Animals were monitored daily for physical condition and body weight, and blood samples were assayed for serum alanine transferase (ALT) and aspartate aminotransferase (AST) levels using a diagnostic kit (Sigma Aldrich). Three animals per group were sacrificed approximately 12 hours (h), 24 h, 72 h, 168 h, 336 h and 672 h following the last dose administered. Observed gross pathology and liver weights were recorded at time of necropsy. Liver, kidney, brain, spleen and pancreas from each rat were harvested, flash frozen in liquid nitrogen, and stored at −80° C.
(§2) Frozen liver was homogenized and lysed in TRIZOL reagent (Cat. #10296-028; Life Technologies) following the modifications for liver RNA isolation. Poly(A+) RNA was isolated using an OLIGOTEX kit (Qiagen, Carlsbad, Calif.) and labeled with either Cy3 or Cy5-labeled primers (Operon Technologies, Alameda, Calif.) using the GEMBRIGHT labeling kit (Incyte Genomics). MRNA isolated from tissues of rats dosed with PB was labeled with Cy5 and mRNA isolated from tissues of rats dosed with DMSO was labeled with Cy3. Quantitative and differential expression pattern control cDNAs were added to each labeling reaction. Labeled cDNA was treated with 0.5 M sodium bicarbonate (pH9.2) for 20 min at 85° C. to degrade the RNA and purified using two successive CHROMA SPIN 30 gel filtration spin columns (Clontech, Palo Alto, Calif.). Cy3 labeled control sample and Cy5 labeled experimental sample were combined and precipitated in glycogen, sodium acetate, and ethanol.
(§3) Hybridization reactions contained 9 microliters of probe mixture consisting of 0.2 micrograms each of both Cy3 and Cy5 labeled cDNA synthesis products in 5×SSC, 0.2% SDS hybridization buffer. The probe mixture was heated to 65° C. for 5 min and was aliquoted onto the microarray surface and covered with an 1.8 cm^2 coverslip. The arrays were transferred to a waterproof chamber having a cavity just slightly larger than a microscope slide. The chamber was kept at 100% humidity internally by the addition of 140 microliters of 5×SSC in a corner of the chamber. The chamber containing the arrays was incubated for about 6.5 hours at 60° C. The arrays were washed for 10 min at 45° C. in low stringency wash buffer (1×SSC, 0.1% SDS), three times for 10 min each at 45 ° C. in high stringency wash buffer (0.1×SSC), and then dried.
(§4) The microscope used to detect the reporter-labeled hybridization complexes was outfitted with an Innova 70 mixed gas 10 W laser (Coherent Lasers, Santa Clara, Calif.) capable of generating spectral lines at 488 nm for excitation of Cy3, and 632 nm for excitation of Cy5. The excitation laser light was focused on the array using a 20X microscope objective (Nikon). […]

SEQ ID NOs: 1-47 = test system: SEQ ID NOs: 1-47
Description: as §1, §2, §3, §4

P450 MCA-inducible = test system: P450 MCA-inducible
Description: as §1, §2, §3, §4

P450 ISF/B-NF = test system: P450 ISF/B-NF
Description: as §1, §2, §3, §4

c1ccc2c(c1)cc1ccc3cccc4ccc2c1c34 [benzo(a)pyrene] was tested, and the “P450 LA-omega upregulated at least once during the time course” value (P450 LA-omega) was “greater than 3 fold”, the “SEQ ID NOs: 1-47 up-regulated or downregulated at least once during the time course” value (SEQ ID NOs: 1-47) was “at least 3 fold” and the “P450 MCA-inducible upregulated at least once during the time course” value (P450 MCA-inducible) was “greater than 3 fold”. For the same molecule, the “P450 ISF/B-NF upregulated at least once during the time course” value (P450 ISF/B-NF) was “greater than 3 fold”.
